Data taken from patent US6355799B1, “Substituted benzene compounds, process for their preparation, and herbicidal and defoliant compositions containing them” (ISK Americas Incorporated, priority 1997, dated 2002).

Columns and labels:
Type in all cases: in vivo
[1] = test system: redroot pigweed (Amaranthus retroflexus, AMARE); experiment: Pre-emerge test, greenhouse herbicide activity screening; conditions: rated 14 days after application, 0 = no damage, 100 = complete death
Procedure, shortened: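 Rating: 0–100 visual injury, 14 DAA. Application: acetone, 187 l/ha, 15–1000 g ai/ha, flat-fan track sprayer with nozzle 40–45 cm above soil or canopy. Post-emerge runs used 0.25% v/v surfactant on 2–3 leaf plants.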

[2] = test system: barnyardgrass (Echinochloa crus-galli, ECHCG); experiment: as above; conditions: rated 14 days after application, 0 = no damage, 100 = complete death
Procedure, shortened: (§1)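 Fourteen days after spraying, crop and weed injury was graded visually from 0, no effect, to 100, every plant dead. Test substances were dissolved in acetone and applied at 15–1000 g ai/ha with a flat-fan nozzle. Application was either pre-emergence, one day after sowing, or post-emergence at the 2–3 leaf stage.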

[3] = test system: green foxtail (Setaria viridis, SETVI); experiment: as above; conditions: rated 14 days after application, 0 = no damage, 100 = complete death
Procedure, shortened: as §1

[4] = test system: ivyleaf morningglory (Ipomoea hederacea, IPOHE); experiment: as above; conditions: rated 14 days after application, 0 = no damage, 100 = complete death
Procedure, shortened: as §1

[5] = test system: johnsongrass (Sorghum halepense, SORHA); experiment: as above; conditions: rated 14 days after application, 0 = no damage, 100 = complete death
Procedure, shortened: as §1

[6] = test system: lambsquarters (Chenopodium album, CHEAL); experiment: as above; conditions: rated 14 days after application, 0 = no damage, 100 = complete death
Procedure, shortened: as §1

[7] = test system: large crabgrass (Digitaria sanguinalis, DIGSA); experiment: as above; conditions: rated 14 days after application, 0 = no damage, 100 = complete death
Procedure, shortened: as §1

[8] = test system: sicklepod (Cassia obtusifolia, CASOB); experiment: as above; conditions: rated 14 days after application, 0 = no damage, 100 = complete death
Procedure, shortened: as §1

[9] = test system: velvetleaf (Abutilon theophrasti, ABUTH); experiment: as above; conditions: rated 14 days after application, 0 = no damage, 100 = complete death
Procedure, shortened: as §1

[10] = test system: field corn (Zea mays L., var. Dekalb 535, CORN); experiment: Pre-emerge test, crop safety; conditions: rated 14 days after application, 0 = no damage, 100 = complete death
Procedure, shortened: (§2)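 Compounds in acetone were track-sprayed at 187 l/ha, 15–1000 g ai/ha, onto sandy loam pots. Pre-emerge seeds were sown one day before spraying, with surface watering afterwards. Post-emerge plants were at the 2–3 leaf stage and sprayed with 0.25% v/v non-ionic surfactant. Injury was rated 0–100 at 14 days.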

[11] = test system: upland rice (Oryza sp., var. Tebonnet, RICE); experiment: Pre-emerge test, crop safety; conditions: rated 14 days after application, 0 = no damage, 100 = complete death
Procedure, shortened: as §2

[12] = test system: barnyardgrass (Echinochloa crus-galli, ECHCG); experiment: Post-emerge test, greenhouse herbicide activity screening; conditions: post-emerge, 14 days after application, rating scale 0-100
Procedure, shortened: (§3)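 Sandy loam pots; pre-emerge: sown 1 d pre-spray, surface-watered after, then bottom-watered. Post-emerge: sown 8–21 d before, 2–3 leaf stage, + 0.25% v/v NIS, bottom-watered. Acetone, 187 l/ha track spray, 15–1000 g ai/ha. 0–100 injury score, day 14.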

[13] = test system: green foxtail (Setaria viridis, SETVI); experiment: as above; conditions: post-emerge, 14 days after application, rating scale 0-100
Procedure, shortened: as §3

[14] = test system: ivyleaf morningglory (Ipomoea hederacea, IPOHE); experiment: as above; conditions: post-emerge, 14 days after application, rating scale 0-100
Procedure, shortened: as §3

[15] = test system: johnsongrass (Sorghum halepense, SORHA); experiment: as above; conditions: post-emerge, 14 days after application, rating scale 0-100
Procedure, shortened: as §3

[16] = test system: lambsquarters (Chenopodium album, CHEAL); experiment: as above; conditions: post-emerge, 14 days after application, rating scale 0-100
Procedure, shortened: as §3

[17] = test system: large crabgrass (Digitaria sanguinalis, DIGSA); experiment: as above; conditions: post-emerge, 14 days after application, rating scale 0-100
Procedure, shortened: as §3

[18] = test system: redroot pigweed (Amaranthus retroflexus, AMARE); experiment: as above; conditions: post-emerge, 14 days after application, rating scale 0-100
Procedure, shortened: as §3

[19] = test system: sicklepod (Cassia obtusifolia, CASOB); experiment: as above; conditions: post-emerge, 14 days after application, rating scale 0-100
Procedure, shortened: as §3

[20] = test system: velvetleaf (Abutilon theophrasti, ABUTH); experiment: as above; conditions: post-emerge, 14 days after application, rating scale 0-100
Procedure, shortened: as §3

[21] = test system: field corn (Zea mays L., var. Dekalb 535, CORN); experiment: Post-emerge test, crop safety; conditions: post-emerge, 14 days after application, rating scale 0-100
Procedure, shortened: as §1

[22] = test system: upland rice (Oryza sp., var. Tebonnet, RICE); experiment: Post-emerge test, crop safety; conditions: post-emerge, 14 days after application, rating scale 0-100
Procedure, shortened: as §1

COc1c(Cl)cc(F)c(-n2c(=O)cc(C(F)(F)F)n(C)c2=O)c1NC(=O)C(C)=Cc1ccccc1 [2-81]
Pre-emerge Herbicidal Activity, phytotoxicity rating (0-100), AMARE ([1]; 63 g ai/ha): 100 | Pre-emerge Herbicidal Activity, phytotoxicity rating (0-100), AMARE ([1]; 250 g ai/ha): 100 | Pre-emerge Herbicidal Activity, phytotoxicity rating (0-100), ECHCG ([2]; 63 g ai/ha): 70 | Pre-emerge Herbicidal Activity, phytotoxicity rating (0-100), ECHCG ([2]; 250 g ai/ha): 100 | Pre-emerge Herbicidal Activity, phytotoxicity rating (0-100), SETVI ([3]; 63 g ai/ha): 100 | Pre-emerge Herbicidal Activity, phytotoxicity rating (0-100), SETVI ([3]; 250 g ai/ha): 100 | Pre-emerge Herbicidal Activity, phytotoxicity rating (0-100), IPOHE ([4]; 63 g ai/ha): 60 | Pre-emerge Herbicidal Activity, phytotoxicity rating (0-100), IPOHE ([4]; 250 g ai/ha): 100 | Pre-emerge Herbicidal Activity, phytotoxicity rating (0-100), SORHA ([5]; 63 g ai/ha): 90 | Pre-emerge Herbicidal Activity, phytotoxicity rating (0-100), SORHA ([5]; 250 g ai/ha): 90 | Pre-emerge Herbicidal Activity, phytotoxicity rating (0-100), CHEAL ([6]; 63 g ai/ha): 100 | Pre-emerge Herbicidal Activity, phytotoxicity rating (0-100), CHEAL ([6]; 250 g ai/ha): 100 | Pre-emerge Herbicidal Activity, phytotoxicity rating (0-100), DIGSA ([7]; 63 g ai/ha): 100 | Pre-emerge Herbicidal Activity, phytotoxicity rating (0-100), DIGSA ([7]; 250 g ai/ha): 100 | Pre-emerge Herbicidal Activity, phytotoxicity rating (0-100), CASOB ([8]; 63 g ai/ha): 90 | Pre-emerge Herbicidal Activity, phytotoxicity rating (0-100), CASOB ([8]; 250 g ai/ha): 100 | Pre-emerge Herbicidal Activity, phytotoxicity rating (0-100), ABUTH ([9]; 63 g ai/ha): 100 | Pre-emerge Herbicidal Activity, phytotoxicity rating (0-100), ABUTH ([9]; 250 g ai/ha): 100 | Pre-emerge phytotoxicity rating (0-100), crop damage, CORN ([10]; 63 g ai/ha): 0 | Pre-emerge phytotoxicity rating (0-100), crop damage, CORN ([10]; 250 g ai/ha): 90 | Pre-emerge phytotoxicity rating (0-100), crop damage, RICE ([11]; 63 g ai/ha): 70 | Pre-emerge phytotoxicity rating (0-100), crop damage, RICE ([11]; 250 g ai/ha): 90 | phytotoxicity rating ECHCG ([12]; 63 g ai/ha): 50 | phytotoxicity rating ECHCG ([12]; 250 g ai/ha): 90 | phytotoxicity rating SETVI ([13]; 63 g ai/ha): 40 | phytotoxicity rating SETVI ([13]; 250 g ai/ha): 60 | phytotoxicity rating IPOHE ([14]; 63 g ai/ha): 100 | phytotoxicity rating IPOHE ([14]; 250 g ai/ha): 100 | phytotoxicity rating SORHA ([15]; 63 g ai/ha): 20 | phytotoxicity rating SORHA ([15]; 250 g ai/ha): 80 | phytotoxicity rating CHEAL ([16]; 63 g ai/ha): 90 | phytotoxicity rating CHEAL ([16]; 250 g ai/ha): 100 | phytotoxicity rating DIGSA ([17]; 63 g ai/ha): 20 | phytotoxicity rating DIGSA ([17]; 250 g ai/ha): 80 | phytotoxicity rating AMARE ([18]; 63 g ai/ha): 100 | phytotoxicity rating AMARE ([18]; 250 g ai/ha): 100 | phytotoxicity rating CASOB ([19]; 63 g ai/ha): 70 | phytotoxicity rating CASOB ([19]; 250 g ai/ha): 100 | phytotoxicity rating ABUTH ([20]; 63 g ai/ha): 100 | phytotoxicity rating ABUTH ([20]; 250 g ai/ha): 100 | phytotoxicity rating CORN ([21]; 63 g ai/ha): 30 | phytotoxicity rating CORN ([21]; 250 g ai/ha): 90 | phytotoxicity rating RICE ([22]; 63 g ai/ha): 60 | phytotoxicity rating RICE ([22]; 250 g ai/ha): 90
